Publication PMC10245146, “CNS4 causes subtype‐specific changes in agonist efficacy and reversal potential of permeant cations in NMDA receptors” (Pharmacology Research & Perspectives, 2023)
Several values for one entry are separate records, joined by “and”; a condition that tells them apart may be missing. Equal values may be shown once.

Tests used:
[1] = molecular target: T1, GluN1/2D NMDA receptors (UniProt O15399+P35439); assay: TEVC antagonist block of agonist-induced currents, 1/2D; type: cell-based; conditions: 100 μM glutamate and glycine
T1 construct: host or cells: Xenopus oocytes (cRNA injection)
T1 sequence (O15399 28-1336, other chains not shown): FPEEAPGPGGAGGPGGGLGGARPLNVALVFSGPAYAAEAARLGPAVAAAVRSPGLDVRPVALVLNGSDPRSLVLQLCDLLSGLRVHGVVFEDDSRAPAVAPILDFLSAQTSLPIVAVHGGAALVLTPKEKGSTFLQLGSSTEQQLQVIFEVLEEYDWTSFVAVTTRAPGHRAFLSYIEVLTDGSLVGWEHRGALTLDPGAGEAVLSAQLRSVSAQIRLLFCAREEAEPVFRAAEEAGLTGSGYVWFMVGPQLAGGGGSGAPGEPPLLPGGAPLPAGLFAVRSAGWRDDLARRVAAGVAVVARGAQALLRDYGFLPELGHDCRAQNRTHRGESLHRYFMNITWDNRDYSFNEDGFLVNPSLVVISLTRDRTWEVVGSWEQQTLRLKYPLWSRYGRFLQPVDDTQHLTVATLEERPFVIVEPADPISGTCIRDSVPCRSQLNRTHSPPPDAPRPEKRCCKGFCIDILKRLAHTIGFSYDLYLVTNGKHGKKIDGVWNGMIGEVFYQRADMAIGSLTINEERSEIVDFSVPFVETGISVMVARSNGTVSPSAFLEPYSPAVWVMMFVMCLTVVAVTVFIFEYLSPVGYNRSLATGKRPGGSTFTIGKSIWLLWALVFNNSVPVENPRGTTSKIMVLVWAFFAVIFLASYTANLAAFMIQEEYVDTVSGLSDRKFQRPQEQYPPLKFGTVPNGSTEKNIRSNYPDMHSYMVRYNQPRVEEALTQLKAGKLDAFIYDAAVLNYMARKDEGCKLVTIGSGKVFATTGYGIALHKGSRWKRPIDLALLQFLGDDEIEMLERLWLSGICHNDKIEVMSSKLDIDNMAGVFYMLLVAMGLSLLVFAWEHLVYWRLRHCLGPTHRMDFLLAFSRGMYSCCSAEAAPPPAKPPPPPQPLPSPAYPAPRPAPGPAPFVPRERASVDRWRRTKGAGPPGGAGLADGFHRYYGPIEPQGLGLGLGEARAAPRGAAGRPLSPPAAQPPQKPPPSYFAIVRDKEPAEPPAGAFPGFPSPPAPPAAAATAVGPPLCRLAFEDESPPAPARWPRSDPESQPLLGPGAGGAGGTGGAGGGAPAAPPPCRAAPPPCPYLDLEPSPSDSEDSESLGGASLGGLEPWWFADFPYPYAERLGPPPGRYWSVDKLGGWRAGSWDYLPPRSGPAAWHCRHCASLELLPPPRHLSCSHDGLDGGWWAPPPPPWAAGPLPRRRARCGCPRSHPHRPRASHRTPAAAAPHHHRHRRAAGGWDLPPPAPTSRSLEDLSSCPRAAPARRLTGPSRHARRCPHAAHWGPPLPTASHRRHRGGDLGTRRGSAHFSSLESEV
Method: (§1) Electrophysiological responses were measured using a standard two‐microelectrode voltage‐clamp workstation (Warner Instruments model OC‐725C) designed to provide a fast clamp of large cells. The recording buffer contained 116 mM NaCl, 2 mM KCl, 0.3 mM BaCl2, and 5 mM HEPES, pH 7.4. Response magnitude was determined in Xenopus oocytes expressing different NMDA receptor subunits (GluN1/2A, 1/2B, 1/2C, 1/2D, and 1/2A/2B) by the steady plateau response elicited by bath application of different agonist concentrations. […] All data points were obtained from the steady state currents unless stated otherwise. Dose–response relationships were fit to an appropriate curve‐fitting equation using GraphPad Prism‐7. Non‐linear regression was used to calculate EC50, IC50, and fold change or percentage maximal response. Curves were fit using the following equations as performed in the previous studies, [37]: Y=100/1+10^LogEC50−XorY=Bottom+Top−Bottom/1+10^LogEC50−X . Statistical significance was determined at the overall alpha level 0.05, using appropriate statistical methods as described in all figure captions. Technical and biological replicates are explicitly mentioned in each figure legend, as n = X (Y). X represents technical repeats (number of traces) and Y represents biological repeats (number of oocytes or HEK293T cells studied). […] For the data sets with nonparametric distribution, Wilcoxon signed rank test is a nonparametric test was used (Figure 1). Paired or unpaired t‐tests were for used only compare the datasets obtained with and without CNS4 dose response curves.
(§2) If CNS4 directly competes with GluN1 or GluN2 competitive antagonists or indirectly influences the activity, there should be a change in DCKA and/ or DL‐AP5 activity in blocking agonist‐induced currents.
FIGURE 4 Effect of CNS4 on competitive and uncompetitive NMDA receptor antagonists. […] A similar experiment was performed with 100 μM DL‐AP5. […] Paired student‐t test was performed to calculate the statistical significance. […]

[2] = molecular target: T2, GluN1/2A NMDA receptors (UniProt P35439+Q12879); assay: TEVC antagonist block of agonist-induced currents, 1/2A; type: cell-based; conditions: 100 μM glutamate and glycine, n = 7 (7)
T2 construct: expressed in transfected cells; host or cells: Xenopus oocytes (cRNA injection)
T2 sequence (Q12879 23-1464, other chains not shown): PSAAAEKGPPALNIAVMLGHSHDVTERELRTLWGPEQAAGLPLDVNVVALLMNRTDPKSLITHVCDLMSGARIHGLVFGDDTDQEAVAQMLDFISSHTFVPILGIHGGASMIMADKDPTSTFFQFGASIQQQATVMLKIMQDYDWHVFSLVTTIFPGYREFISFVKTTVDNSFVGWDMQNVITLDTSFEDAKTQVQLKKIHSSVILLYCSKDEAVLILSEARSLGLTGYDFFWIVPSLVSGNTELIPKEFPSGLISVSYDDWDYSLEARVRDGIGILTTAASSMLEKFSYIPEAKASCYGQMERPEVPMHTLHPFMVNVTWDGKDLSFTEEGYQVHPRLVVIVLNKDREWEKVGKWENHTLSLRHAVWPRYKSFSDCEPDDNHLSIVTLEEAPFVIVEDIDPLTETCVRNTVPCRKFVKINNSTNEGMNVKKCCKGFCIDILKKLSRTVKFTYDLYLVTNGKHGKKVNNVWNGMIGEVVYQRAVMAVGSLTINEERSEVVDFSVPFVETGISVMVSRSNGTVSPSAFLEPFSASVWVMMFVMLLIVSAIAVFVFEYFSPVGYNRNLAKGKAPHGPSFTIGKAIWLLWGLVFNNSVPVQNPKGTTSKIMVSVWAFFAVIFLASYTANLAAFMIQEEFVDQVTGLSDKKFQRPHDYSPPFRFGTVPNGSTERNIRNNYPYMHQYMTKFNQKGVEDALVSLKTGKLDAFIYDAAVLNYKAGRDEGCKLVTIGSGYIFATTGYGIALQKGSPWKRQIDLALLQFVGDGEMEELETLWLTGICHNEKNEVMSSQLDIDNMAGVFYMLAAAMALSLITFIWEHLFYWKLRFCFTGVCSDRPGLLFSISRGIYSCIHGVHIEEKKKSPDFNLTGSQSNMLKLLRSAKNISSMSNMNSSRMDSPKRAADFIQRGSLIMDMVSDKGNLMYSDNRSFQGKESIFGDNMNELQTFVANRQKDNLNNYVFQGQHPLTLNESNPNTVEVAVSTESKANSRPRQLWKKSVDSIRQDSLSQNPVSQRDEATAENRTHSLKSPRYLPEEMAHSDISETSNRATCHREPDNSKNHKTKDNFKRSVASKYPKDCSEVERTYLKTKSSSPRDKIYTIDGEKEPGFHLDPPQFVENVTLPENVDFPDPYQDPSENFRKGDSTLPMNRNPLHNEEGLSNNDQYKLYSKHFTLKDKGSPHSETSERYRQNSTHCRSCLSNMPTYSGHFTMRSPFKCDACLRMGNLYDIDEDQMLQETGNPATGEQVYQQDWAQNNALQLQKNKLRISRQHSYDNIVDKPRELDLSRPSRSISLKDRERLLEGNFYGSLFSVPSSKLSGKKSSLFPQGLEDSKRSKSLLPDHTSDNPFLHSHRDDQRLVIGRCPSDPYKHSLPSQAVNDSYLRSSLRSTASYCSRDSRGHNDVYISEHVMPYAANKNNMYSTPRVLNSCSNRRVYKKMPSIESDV
Method: as §1, §2
FIGURE 4 Effect of CNS4 on competitive and uncompetitive NMDA receptor antagonists. […] A similar experiment was performed with 100 μM DL‐AP5. […] Paired student‐t test was performed to calculate the statistical significance. […] Unpaired student‐t test was performed to calculate the statistical significance. *p < .05; NS, not significant.

[3] = molecular target: 1/2D NMDA receptor; conditions: read-out: Glutamate potency EC50; cited from earlier work
[4] = molecular target: 1/2A NMDA receptor; conditions: read-out: Glutamate potency EC50; cited from earlier work
[5] = tested on: GluN1/2A/2B triheteromeric (1/2AB) NMDA receptors; assay: TEVC agonist dose-response, Xenopus oocytes expressing 1/2AB; type: cell-based; conditions: without CNS4; 100 μM glutamate constant; relative to 1 μM glycine
Source text: NMDA receptor constructs: cDNA encoding the NMDA receptor1a subunit (GluN1a) was obtained from Dr. Nakanishi (Kyoto, Japan). cDNA encoding the GluN2B (pci_sepGluN2B), originally developed in the Malinow lab,[33] was purchased from Addgene (cat# 23998), Cambridge, MA. cDNA encoding the GluN2C and GluN2D were purchased from GenScript, New Jersey, USA. Mutated GluN1, 2A and 2B cDNA constructs capable of assembling as GluN1/2A/2B triheteromeric (1/2AB) receptors[34] were obtained from Dr. Paoletti (Laboratoire de Neurobiologie, CNRS). These constructs have been previously tested for 1/2AB receptor activity of GluN1/2A receptor‐selective potentiators.[35] […] Plasmids were linearized with NotI (GluN1a and all five GluN1 mutants) or Avrll (GluN2B), or BstB1 (GluN2C and GluN2D) and transcribed in vitro with T7 (GluN1a, GluN1/2A, GluN2B, GluN2C & GluN2D), and SP6 (GluN1 mutants) RNA polymerase using the mMessage mMachine transcription kits (Invitrogen by Thermo Fisher Scientific).
Stage IV frog oocytes were obtained from Xenopus‐I, (Ann Arbor, MI, USA). NMDA receptor subunit cRNAs were suspended in nuclease free sterile water. GluN1A, GluN2B, GluN2C, GluN2D and GluN1/2A/2B cRNAs were mixed in a ratio of 1:1–3. 50 nL of the final cRNA mixture was microinjected (40–70 ng total) into the oocyte cytoplasm. Oocytes were incubated in ND‐96 solution at 18°C prior to electrophysiological recordings (2–5 days).
Electrophysiological responses were measured using a standard two‐microelectrode voltage‐clamp workstation (Warner Instruments model OC‐725C) designed to provide a fast clamp of large cells. The recording buffer contained 116 mM NaCl, 2 mM KCl, 0.3 mM BaCl2, and 5 mM HEPES, pH 7.4. Response magnitude was determined in Xenopus oocytes expressing different NMDA receptor subunits (GluN1/2A, 1/2B, 1/2C, 1/2D, and 1/2A/2B) by the steady plateau response elicited by bath application of different agonist concentrations. […] All data points were obtained from the steady state currents unless stated otherwise. Dose–response relationships were fit to an appropriate curve‐fitting equation using GraphPad Prism‐7. Non‐linear regression was used to calculate EC50, IC50, and fold change or percentage maximal response. Curves were fit using the following equations as performed in the previous studies, [37]: Y=100/1+10^LogEC50−XorY=Bottom+Top−Bottom/1+10^LogEC50−X . Statistical significance was determined at the overall alpha level 0.05, using appropriate statistical methods as described in all figure captions. Technical and biological replicates are explicitly mentioned in each figure legend, as n = X (Y). X represents technical repeats (number of traces) and Y represents biological repeats (number of oocytes or HEK293T cells studied). […]

[6] = 100 μM antagonist plus 100 μM CNS4

SMILES	Block of agonist-induced currents [1, 6]	Block of agonist-induced currents ([2]; 100 μM antagonist alone)	Block of agonist-induced currents [2, 6]	Block of agonist-induced currents ([1]; 100 μM antagonist alone)	EC50 [3]	EC50 [4]	Glycine efficacy: relative fold change in current at highest glycine concentration [5]
O=C(O)c1cc(=O)c2c(Cl)cc(Cl)cc2[nH]1 [DCKA]	62.09 ± 2.27%	97.85 ± 0.66%	98.98 ± 0.21%				
NC(CCCP(=O)(O)O)C(=O)O (stereo not drawn) [DL‐AP5]	5.96 ± 10.59%	39.53 ± 1.22% and ~ 39%	38.10 ± 1.28%	18.28 ± 10.47% and ~ 18%			
N[C@@H](CCC(=O)O)C(=O)O [glutamate, L‐glutamate]					~500 nM	~3000 nM	
NCC(=O)O [glycine, reference compound]							2.37 ± 0.23 fold
